For series [1], the target named is T1, Mammalian thymidine kinase (Homo sapiens, UniProt P04183).
T1 sequence (P04183 1-234): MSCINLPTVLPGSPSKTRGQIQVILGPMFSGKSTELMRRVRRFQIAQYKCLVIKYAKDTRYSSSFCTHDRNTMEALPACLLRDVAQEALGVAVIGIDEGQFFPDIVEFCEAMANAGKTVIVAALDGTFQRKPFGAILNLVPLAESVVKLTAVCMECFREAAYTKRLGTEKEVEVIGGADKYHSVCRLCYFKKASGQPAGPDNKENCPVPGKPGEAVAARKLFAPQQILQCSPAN
The following applies: cited from earlier work.

Series [2] concerns the target Herpes pyrimidine nucleoside kinase (HSV-tk) (Human herpesvirus 1, UniProt P0DTH5). The conditions noted are these: with respect to Herpes pyrimidine nucleoside kinase / HSV-tk; cited from earlier work.
Series [3] relates to A375NV (no vector) melanoma cells. Briefly: in vitro clonogenic assay of radiosensitivity, non-transduced cells. Type of series: cell-based, human. An excerpt: (§1) For this example, a vector, termed LNSTK was kindly provided by F. Moolten which contained the HS-tk gene driven by the SV40 early promoter. Other transformation vectors containing the HS-tk retroviral vector such as the LTKOSN.2 vector by the Human Gene Therapy Research Institute (Des Moines, Iowa) are commercially available. Another such vector is the GITkSvNa vector by Genetic Therapy Inc., Gaithersburg, Md. A human A375 melanoma cell line was used because of its ease of growth and rapid colony formation in a clonogenic assay. The survival of A375NV (no vector) and A375TK (transduced with LNStk vector) after 30 GY of gamma-radiation with 0,1, or 10 µg/ml IdC is shown in FIG. 2.
(§2) […] cells were plated in a 100 cm^2 tissue culture dish in free media. The next day drug was added in the appropriate concentration. 48 hours later the cells were irradiated with 30 GY from a 250 KV X-ray machine as a single dose. The cells were then trypsinized and replated at between 2.5×10^2 and 1×10^6 cells per plate in triplicate for each data point. After twelve days the cells were fixed, stained and macroscopic colonies containing […] were counted. Measurements in the graph were corrected for plating efficiency. […] Irradiated A375 NV preincubated with 0,1 or 10 μg/ml of IdC had 18.6, 19.3 and 18.3 percent survival respectively. Irradiated A375 tk cells preincubated with 0,1, or 10 μg/ml of IdC had 15.7, 9.9 and 4.4 percent survival respectively.
(§3) In FIG. 3 another experiment is shown, design similar to Example 1. This experiment compared radio sensitivity of A375 NV and A375 tk cells after preincubation with 10 μg/ml of BrdC for 48 hours before X-ray exposure. […] Survival percentages for cells incubated with 10 μg of BrdC and then irradiated with 30 Gy were divided by the survival fraction of cells incubated with 10 μg/ml of BrdC and then mock irradiated.

Series [4] concerns A375TK (transduced with LNStk vector) melanoma cells. Briefly: in vitro clonogenic assay of radiosensitivity, HS-tk transduced cells. The following applies: for survival (figure legend): cells transformed with the STK vector, drug and radiation. Type of series: cell-based, human.
Text: as §1, §2, §3

The target in series [5] is mammalian deoxycytidine kinase (Homo sapiens, UniProt P27707). The conditions noted are these: with respect to mammalian deoxycytidine kinase; cited from earlier work.
In a further series the test system is mammalian cells. The following applies: cited from earlier work.
For series [6], the system named is mixture of 50% A375 NV and 50% A375 HS-tk cells. Briefly: clonogenic assay of bystander effect, mixed cells at high density. Format: cell-based, human. The conditions noted are these: 10 μg/ml, 30 Gy. On the procedure:
Without wishing to be bound by any theory it is hypothesized that HSV-tk transduced tumor cells are able to sensitize non transduced tumor cells in their vicinity through a bystander effect via metabolic cooperation. Specifically, cells that are not transduced with HS-tk gene can also be sensitized to radiation. […] These cells were plated at a density of 3×10^6 cells per 100 cm^2 tissue culture dish the afternoon prior to adding 10 μg/ml BrdC to the media. […] In contrast the experimentally obtained survival for this mixture of cells when plated together at high density was only 6.2%.

[7] abbreviates: irradiated (30 Gy) A375 tk preincubated with 10 μg/ml, before adjustment.
[8] abbreviates: non irradiated A375 tk, 10 μg/ml drug 48 h, compared to non-irradiated control cells not preincubated with drug.

One may read the Km as the concentration of substrate that gives half-maximal velocity.

The structures appear in SMILES notation.

Chain of Herpes pyrimidine nucleoside kinase (HSV-tk) (P0DTH5 whole entry): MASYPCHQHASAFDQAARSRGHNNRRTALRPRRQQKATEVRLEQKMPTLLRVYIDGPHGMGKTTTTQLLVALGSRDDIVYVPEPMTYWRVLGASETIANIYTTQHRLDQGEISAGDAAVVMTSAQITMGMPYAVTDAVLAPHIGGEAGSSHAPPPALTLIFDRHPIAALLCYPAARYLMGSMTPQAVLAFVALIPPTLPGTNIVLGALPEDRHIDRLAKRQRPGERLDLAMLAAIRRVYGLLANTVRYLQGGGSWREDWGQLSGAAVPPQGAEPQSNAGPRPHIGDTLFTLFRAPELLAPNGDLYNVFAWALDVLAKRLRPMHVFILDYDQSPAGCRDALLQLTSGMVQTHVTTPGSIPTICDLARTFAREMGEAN
Chain of mammalian deoxycytidine kinase (P27707 whole entry): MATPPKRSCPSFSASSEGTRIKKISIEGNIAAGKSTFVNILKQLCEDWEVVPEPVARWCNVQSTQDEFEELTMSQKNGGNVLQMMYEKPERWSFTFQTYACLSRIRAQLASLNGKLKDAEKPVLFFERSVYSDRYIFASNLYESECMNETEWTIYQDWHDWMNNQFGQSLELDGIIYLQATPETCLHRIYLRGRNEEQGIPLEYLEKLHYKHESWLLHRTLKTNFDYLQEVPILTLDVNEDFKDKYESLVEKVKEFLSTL

As for `Nc1nc(=O)n([C@H]2C[C@H](O)[C@@H](CO)O2)cc1I` [IdC, 5-iodo-2′-deoxycytidine], the “phosphorylation by mammalian thymidine kinase” value in series [1] is recorded as “cannot phosphorylate”. In addition, the Km in series [2] is 2 µM; in series [5] it was 4000 µM. Also, the “radiation potentiation in the absence of the HS-tk gene” value in series [3] (IdC 1 or 10 μg/ml, 30 Gy) is on record as “no degree radiation potentiation was seen”. The percent survival in series [3] (irradiated (30 Gy) A375 NV preincubated with 1 μg/ml) was 19.3%; in series [3] (irradiated (30 Gy) A375 NV preincubated with 10 μg/ml) it was 18.3%; in series [4] (irradiated (30 Gy) A375 tk preincubated with 1 μg/ml), 9.9%; in series [4] (setting [7]) it was 4.4%. Also, the survival came out at 73% in series [3] (non irradiated A375 NV, 10 μg/ml drug 48 h, compared to non-irradiated control cells not preincubated with drug) and 54% in series [4] (setting [8]). The “survival (figure legend)” value was “approximately 50%” in series [3] (nontransformed cells treated with radiation) and “less than 10%” in series [4].
For the molecule `O=C1NC(O)CCN1[C@@H]1O[C@H](CO)[C@@H](O)[C@H]1O` (some centres unmarked) [Tetrahydrouridine, tetrahydrouridine], the “safety in mammalian cells” value with mammalian cells is “safe and non toxic”.
Regarding `Nc1ccn([C@H]2C[C@H](O)[C@@H](CO)O2)c(=O)n1` [Deoxycytidine, deoxycytidine, reference compound], the Km in series [2] is 500 µM.
In the case of `Nc1nc(=O)n([C@H]2C[C@H](O)[C@@H](CO)O2)cc1Br` [BrdC, 5-bromo-2′-deoxycytidine], the “experimentally obtained survival of the mixture” value in series [6] (50% A375 tk and 50% A375 NV plated together at high density) came out at 6.2%. Moreover, the “expected survival of the mixture (half of tk plus half of NV survival)” value in series [6] (50% A375 tk and 50% A375 NV, theoretical) amounted to 8.3%. Further, the “phosphorylation by mammalian thymidine kinase” value in series [1] is “cannot phosphorylate”. Besides, the values for the Michaelis constant (Km) in series [2] and in series [5] were 2 µM and 2100 µM, respectively. Further, the survival in series [3] (100% A375 NV plated at 3×10^6 cells per dish (about 90% confluent), 10 μg/ml, 30 Gy) is 13.1%; in series [4] (100% A375 tk plated at 3×10^6 cells per dish (about 90% confluent), 10 μg/ml, 30 Gy), 3.5%; in series [4] (setting [8]), 33%. Moreover, the “adjusted survival (irradiated survival divided by nonirradiated surviving fraction)” value was 9% in series [3] (A375 NV, 10 μg/ml, 30 Gy) and 6.9% in series [4] (A375 tk, 10 μg/ml, 30 Gy). Further, the “survival (figure legend)” value in series [4] was “less than 10%”. The molecule further displayed a percent survival in series [4] (setting [7]) of 2.3%.

Source of the values: patent US6342217B1, “Radiation enhanced gene therapy for tumors expressing a gene for a viral pyrimidine kinase in the presence of a 5′-halogenated pyrimidine” (Human Gene Therapy Research Institute, priority 1995, dated 2002).
